Test results as given in paper PMC12796071, “Evaluation of [^18F]MNI-1054, a novel PET ligand for lysine-specific histone demethylase 1A (LSD1), in non-human primates” (EJNMMI Research, 2025).
Several values for one entry are separate records, joined by “and”; a condition that tells them apart may be missing. Equal values may be shown once. Entries after “also recorded” stand apart in the source; their conditions may differ.

Experiments:
LSD1 [1] = molecular target: T1, LSD1 (Macaca mulatta, UniProt I2CUD2); assay: PET imaging of the testes (baseline and TAK-418 blocking); details: TAK-418 3.0 mg/kg iv 120 min before tracer, M3
Method: TAK-418 (3 mg/kg) was administered as an intravenous bolus over 5-min, starting 120 min prior to [^18F]MNI-1054 administration.

[2] = TAK-418 plasma concentration after 5-minute intravenous bolus; assay type: in vivo, rhesus monkeys (macaca mulatta); details: 0.3 mg/kg iv
LSD1 [3] = molecular target: T1, LSD1; assay: LSD1 enzyme occupancy in brain from [18F]MNI-1054 PET blocking, self-block and repopulation studies; assay type: in vivo, rhesus monkeys (macaca mulatta); parameters: from tissue; host or cells: brain of living rhesus monkeys (M1, M2), in vivo PET; details: for Occupancy: from Ki
Method: M1 and M2 each completed a scan at baseline to assess brain penetration and kinetics and to serve as reference for the blocking and displacement studies. A self-block study with cold 3 mg/kg MNI-1054, starting 5 min prior to [^18F]MNI-1054 administration, was conducted in M1 to assess regional differences in non-specific binding.
Blocking studies with the LSD1 inhibitor TAK-418 ([…]) were performed to measure the dose-occupancy relationship for this compound. For blocking studies, TAK-418 was administered intravenously 2 h prior to [^18F]MNI-1054. Prior to conducting these blocking studies, a displacement study with TAK-418 (3 mg/kg) was performed to confirm irreversible tracer binding, in which TAK-418 was administered 1.5 h post [^18F]MNI-1054 administration. For all studies involving TAK-418, the test article was administered intravenously over 5 min. Due to the irreversible binding of these compounds to LSD1, the time taken for the enzyme to re-populate was investigated by imaging one animal (M2) with [^18F]MNI-1054 at 24 and 48 h post TAK-418 treatment (0.3 mg/kg). Each animal also underwent a high-resolution T1-weighted structural brain MRI scan with a 3-D MPRAGE sequence on a separate day for anatomical reference.
Regional occupancy due to TAK-418 or unlabeled MNI-1054 as measured with [^18F]MNI-1054 was computed as the percent change relative to the baseline value of Ki, i.e. where the drug was either TAK-418 or MNI-1054. An Emax model with maximum occupancy constrained to a value less than 100% was fitted to the dose-occupancy plot to estimate Omax (maximal occupancy) and ED50 [mg/kg] representing the injected TAK-418 dose yielding 50% LSD1 occupancy.

[4] = cerebellum, TAK-418 iv 2 h before tracer

- occupancy in the testes (LSD1 [1]; from fractional changes in a parameter other than Ki): 94.4%
- plasma concentration as percent of its peak value ([2]; after 5 h): 0.45%
- Occupancy based on fractional changes in k3 (LSD1 [3]; cerebellum, TAK-418 0.005 mg/kg, 2 h post-dose): 2.4%
- Occupancy (LSD1 [3]; cerebellum, TAK-418 0.005 mg/kg, 2 h post-dose, M2): −21.3%
- [18F]MNI-1054 Ki 2 h post-dose (LSD1 [3]; cerebellum, TAK-418 0.005 mg/kg, M2): 0.057 mL/cm^3/min
- Occupancy (LSD1 [3]; cerebellum, TAK-418 0.01 mg/kg, 2 h post-dose, M1): 47.3%
- [18F]MNI-1054 Ki 2 h post-dose (LSD1 [3]; cerebellum, TAK-418 0.01 mg/kg, M1): 0.030 mL/cm^3/min
- Occupancy (LSD1 [3]; cerebellum, TAK-418 0.03 mg/kg, 2 h post-dose, M2): 62.5%
- [18F]MNI-1054 Ki 2 h post-dose (LSD1 [3]; cerebellum, TAK-418 0.03 mg/kg, M2): 0.017 mL/cm^3/min
- Occupancy (LSD1 [3]; cerebellum, TAK-418 0.3 mg/kg, 2 h post-dose, M1): 89.9%
- LSD1 enzyme occupancy (LSD1 [3]; cerebellum, TAK-418 0.3 mg/kg, 24 h post-dose, M2): 29.8%
- [18F]MNI-1054 Ki 2 h post-dose (LSD1 [3]; cerebellum, TAK-418 0.3 mg/kg, M1): 0.006 mL/cm^3/min
- half-life for occupancy to decrease to zero (proxy for LSD1 enzyme repopulation) (LSD1 [3]; cerebellum, TAK-418 0.3 mg/kg, exponential fit to 2, 24 and 48 h occupancy): 12.28 h
- Occupancy (LSD1 [3]; cerebellum, TAK-418 3 mg/kg, 2 h post-dose, M1, 3 mg/kg): 90.1%
- [18F]MNI-1054 Ki 2 h post-dose (LSD1 [3]; cerebellum, TAK-418 3 mg/kg, M1): 0.005 mL/cm^3/min
- ED50 (Emax model fit) (LSD1 [3]; [4]): 0.0224 mg/kg and ~ 0.0224 mg/kg
- Omax (Emax model fit) (LSD1 [3]; [4]): 95.6%
- ED50 (Emax model fit) (LSD1 [3]; occipital cortex): 0.0279 mg/kg and ~ 0.0279 mg/kg
- Omax (Emax model fit) (LSD1 [3]; occipital cortex): 77.3%
- ED50 (Emax model fit) (LSD1 [3]; pons): 0.046 mg/kg
- Omax (Emax model fit) (LSD1 [3]; pons): 73.3%
Compound: O=C(NC1CCOCC1)c1csc([C@@H]2C[C@H]2NCC2CC2)c1 [TAK-418]
- signal blockade in the testes (LSD1 [1]; compared with control leg muscle, 3 mg/kg): significant signal blockade; also recorded: substantial reduction
- TAK-418 levels in plasma ([2]; 24 and 48 hours post-dose, M2): no detectable levels; also recorded: below the level of detection
